Values of other authors as cited in patent US7494643B2, “Method and topical composition for the treatment of hyperpigmented skin” (priority 2003, dated 2009).

Tests used:
[1] = biological target: T1, human-tyrosinase (Homo sapiens, UniProt P14679); conditions: competitive inhibition; cited from earlier work
T1 sequence (P14679 19-529): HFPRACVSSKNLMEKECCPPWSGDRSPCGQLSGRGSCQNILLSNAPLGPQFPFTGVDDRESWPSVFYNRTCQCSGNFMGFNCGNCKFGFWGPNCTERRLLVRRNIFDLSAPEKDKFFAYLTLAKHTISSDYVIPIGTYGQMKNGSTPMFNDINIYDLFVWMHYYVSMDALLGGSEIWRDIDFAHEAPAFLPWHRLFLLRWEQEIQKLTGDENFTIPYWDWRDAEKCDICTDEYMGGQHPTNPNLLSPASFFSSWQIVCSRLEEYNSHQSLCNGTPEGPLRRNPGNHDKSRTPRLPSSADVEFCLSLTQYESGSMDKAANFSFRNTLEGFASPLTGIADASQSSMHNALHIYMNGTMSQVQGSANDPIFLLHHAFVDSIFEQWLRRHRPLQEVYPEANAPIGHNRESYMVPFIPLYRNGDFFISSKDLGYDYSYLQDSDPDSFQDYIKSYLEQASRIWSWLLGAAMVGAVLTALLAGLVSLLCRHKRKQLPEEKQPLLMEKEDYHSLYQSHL

[2] = system: mushroom-tyrosinases; conditions: competitive inhibition; cited from earlier work
[3] = system: tyrosinase isolated from black goldfish and standard goldfish; conditions: cited from earlier work
[4] = system: cultured pigment cells; conditions: cited from earlier work
[5] = system: black goldfish; conditions: ingested by the fish; cited from earlier work
[6] = system: melanocytes; conditions: cited from earlier work
[7] = system: HIV; conditions: NCI primary screen; cited from earlier work

**Q.** For `OC[C@H]1O[C@@H](Oc2ccc(O)cc2)[C@H](O)[C@@H](O)[C@@H]1O` [Arbutin], which “inhibition of enzyme activity of human tyrosinase” value [1] is on record?
**A.** The value was “inhibits enzyme activity”.

**Q.** And the “inhibition of enzyme activity of mushroom tyrosinase” value [2]?
**A.** Its value is “inhibits enzyme activity”.

**Q.** With `O=c1cc(CO)occ1O` [Kojic acid] as the molecule, how does the inhibition of tyrosinase [3] read?
**A.** The inhibition of tyrosinase was “inhibit tyrosinase”.

**Q.** What about the suppression of melanogenesis [4] of the same molecule?
**A.** The suppression of melanogenesis was “suppress melanogenesis”.

**Q.** And the “colour of black goldfish after ingestion” value [5]?
**A.** The value was “almost yellow-brown”.

**Q.** For `Oc1ccc(O)cc1` [hydroquinone], which “cytotoxicity (destroys the cellular walls of the melanocytes)” value [6] is on record?
**A.** Its value is “cytotoxic”.

**Q.** With Vismiaphenone D as the molecule, how does the HIV-inhibitory activity [7] read?
**A.** The HIV-inhibitory activity was “HIV-inhibitory activity”.
